Data on one compound can be found in ChEMBL document CHEMBL1141441, “Crystallographic investigation of the inhibition mode of a VIM-2 metallo-beta-lactamase from Pseudomonas aeruginosa by a mercaptocarboxylate inhibitor” (J Med Chem, 2007).

The assay is described as follows: Inhibition of IMP1 expressed in Escherichia coli BL21 (DE3).

Molecules are shown by their SMILES.

Take `O=C(O)C(CS)CCCc1ccccc1` (racemic): affinity was put at a Ki of 1.66 µM.
